“Also recorded” adds a separate entry of the source. Like-named read-outs stand apart in the source and are kept apart here. Square brackets hold non-standard residues; d marks the D form. Ends that are not written are not given here. Cit = NC(=O)NCCC[C@H](N)C(=O)O
Assays:
[1] = in mice; cited from earlier work
CD4+ spleen T cells = assay: Intracellular cytokines and FoxP3 in spleen T cells by flow cytometry; format: cell-based, BALB/c mice
Protocol: (§1) Animals were euthanized on day 35 after the first control or LEAPS vaccination, and sera was collected. For histopathology, hind limbs (from 5 mice/treatment groups plus 3 normal mice limbs) were dissected and fixed in 10% buffered formalin. The specimens were embedded in paraffin and sectioned. Adjacent tissue sections were stained separately with TB and HE. Microscopic analysis and scoring of joint damage were carried out independently under code by Bolder BioPath. Serum anti-LEAPS peptide antibody levels were determined by ELISA using Neutavidin plates and Biotin labeled peptides for loading onto plates. To determine cytokine production by spleen cell cultures, after a 4-day stimulation of spleen cells with 7.5 μg/ml rhG1 (or no treatment as control), cytokines secreted into the culture media were assayed by MagPix as 9-plex or 6-plex kits from R&D Systems. For intracellular cytokines and FoxP3 detection, spleen cells from 5 mice from each group were cultured with rhG1 for 4 days. The cells were treated with PMA, ionomycin, and GolgiStop for 4 hours, stained for cell surface markers and intracellular cytokines or Foxp3. Samples were run on a FACS Canto flow cytometer and the results analyzed by FACS Diva software. Statistical analysis of data was done using GraphPad Prism 7 software package. Nonparametric and multiple comparison test were conducted as described. […]

[2] = test system: beDerG-PG70, bePG275cit, beOVA-OR8, beDerG-PG275cit, bePG70, beDerG-GGG; assay: Serum anti-LEAPS peptide antibody ELISA (biotinylated peptides on NeutrAvidin plates); format: in vivo, BALB/c mice; settings: sera of vaccinated mice, day 35
GIA model of RA [3] = assay: Visual arthritis score (VAS) after therapeutic LEAPS vaccination in rhG1-induced arthritis; format: in vivo, BALB/c mice; settings: overall conclusion
spleen cells = assay: Cytokines secreted by rhG1-stimulated spleen cell cultures (MagPix); format: cell-based, BALB/c mice; settings: 7.5 μg/ml rhG1 4 days, stimulated less non-stimulated
Protocol: as §1

GIA model of RA [4] = assay: Histopathology of hind limbs (ankles, hind paws) of diseased mice after vaccination; format: in vivo, BALB/c mice
[5] = in humans; cited from earlier work
[6] = ankles, 40x magnification, day 35
[7] = hind paws, digit joints, 16x magnification

ATEGRVRVNSAYQDK-amide (ATEGRVRVNSAYQDK-NH2) [PG70, proteoglycan aggrecan (G1) residues 70-84]
Immunogenicity of epitope [1]: more immunogenic than PG70Cit

DGQEEKAGVVSTGLIGGGMDMCSAGWLADCitSVR-amide (DGQEEKAGVVSTGLIGGGMDMCSAGWLAD[Cit]SVR-NH2; not fully specified) [DerG-PG275Cit]
Treg cell activation (FoxP3) (CD4+ spleen T cells; CD4+ spleen T cells, rhG1 4 days): appeared to activate Treg cells
Serum antibodies to vaccine peptides (OD 450 nm) [2]: does not induce antibodies to either DerG or PG275Cit or the conjugate; also recorded: induced antibodies against neither the DerG element nor the PG275Cit element
Therapeutic effect / protection in the GIA model of RA (GIA model of RA [3]): therapeutic in the GIA model of RA with high efficacy
Net secreted IFNγ (spleen cells): induced
Net secreted IL17A (spleen cells): induced
Cartilage damage, ankle histopathology (GIA model of RA [4]; [6]): mild
Inflammation, ankle histopathology (GIA model of RA [4]; [6]): moderate
Joints affected, ankle histopathology (GIA model of RA [4]; [6]): the ankle and several digit joints
Joints affected, hind paw histopathology (GIA model of RA [4]; hind paws, 16x magnification): several digit joints
Cartilage damage, hind paw histopathology (GIA model of RA [4]; [7]): mild
Inflammation, hind paw histopathology (GIA model of RA [4]; [7]): moderate

GQEEKAGVVSTGLIGGGMDMCSAGWLADRSVR-NH2 [DerG-PG275]
Modulation of Th2, Treg, Th1 cells and cytokines (CD4+ spleen T cells; overall conclusion): does not appear to up modulate Th2 or Treg or Th1 cells or cytokines
Therapeutic effect / protection in the GIA model of RA (GIA model of RA [3]): can provide protection alone

MDMCSAGWLADCitSVR-amide (MDMCSAGWLAD[Cit]SVR-NH2; not fully specified) [PG275Cit]
Immunogenicity of epitope [1]: more immunogenic than PG275
Immunogenicity of epitope [5]: more immunogenic than PG275

From patent US20220218806A1, “PEPTIDES AND CONJUGATES FOR TREATMENT OF ARTHRITIS” (CRL-SCI Corporation, priority 2019, published 2022)
